From paper PMC4638191, “Multicomponent reaction-based synthesis and biological evaluation of tricyclic heterofused quinolines with multi-trypanosomatid activity” (European Journal of Medicinal Chemistry, 2015)
Where two headings read alike, the source gives them in different places.

Tests used:
[1] = system: L. infantum strain MCAN/ES/92/BCN722 promastigote forms; test: Activity against promastigotes of L. infantum (acid phosphatase); type: cell-based, Leishmania infantum; conditions: promastigote form, mean ± SD of duplicate experiments performed at least twice
[2] = system: rat skeletal myoblast L6 cells; test: cells; conditions: L6, read-out: L6 cells IC50
Procedure: (§1) Cytotoxicity against mammalian cells was assessed using microtitre plates following a described procedure [58]. Briefly, rat skeletal muscle L6 cells were seeded at 1 × 10^4 mL^−1 in 200 μL of growth medium containing different compound concentrations. The plates were incubated for 6 days at 37 °C and 20 μL resazurin was then added to each well. After a further 8 h incubation, the fluorescence was determined using a Spectramax plate reader.

[3] = molecular target: Electrophorus electricus AChE (EeAChE) (Electrophorus electricus, UniProt O42275); test: biochemical; type: biochemical; conditions: mean ± SEM
[4] = in vitro; conditions: rat, rat skeletal muscle L6 cells
Procedure: as §1

[5] = for Pe: PAMPA-BBB, PBS:EtOH 70:30, mean ± SD of three independent experiments; for Pe (prediction) of BBB permeation: class from PAMPA-BBB Pe
Procedure: Thus, the brain passive permeability of the novel compounds was evaluated in vitro through the widely used PAMPA-BBB method [[50]

[6] = system: T. cruzi strain MHOM/ES/2203/BCN590 (Tcl) epimastigote forms; test: Activity against epimastigotes of T. cruzi (cell counting); conditions: mean ± SD of duplicate experiments performed at least twice
[7] = system: bloodstream form T. brucei (strain 221); test: Trypanocidal activity against cultured bloodstream form T. brucei (resazurin); conditions: for IC50: mean of triplicate ± SEM; for IC90: pH 7.4, read-out: T. brucei IC90
Procedure: T. brucei in the logarithmic phase of growth were diluted back to 2.5 × 10^4 mL^−1 and aliquoted into 96-well plates. The compounds were then added at a range of concentrations and the plates incubated at 37 °C. Each drug concentration was tested in triplicate. Resazurin was added after 48 h and the plates incubated for a further 16 h and the plates then read in a Spectramax plate reader. Results were analysed using GraphPad Prism.

[8] = SILi: selectivity index as the ratio of cytotoxic to anti-L. infantum IC50 values, L6 IC50 / L. infantum IC50
[9] = SITb: selectivity index as the ratio of cytotoxic to anti-T. brucei IC50 values, L6 IC50 / T. brucei IC50
[10] = SITc: selectivity index as the ratio of cytotoxic to anti-T. cruzi IC50 values, L6 IC50 / T. cruzi IC50
[11] = Trypanosoma cruzi, read-out: T. cruzi IC50, epimastigote form
[12] = read-out: T. cruzi IC50, epimastigote form
[13] = Trypanosoma brucei, pH 7.4, read-out: T. brucei IC50, bloodstream form, pH 7.4
[14] = read-out: T. brucei IC50, bloodstream form, pH 7.4

Sequence of Electrophorus electricus AChE (EeAChE) (O42275 24-633): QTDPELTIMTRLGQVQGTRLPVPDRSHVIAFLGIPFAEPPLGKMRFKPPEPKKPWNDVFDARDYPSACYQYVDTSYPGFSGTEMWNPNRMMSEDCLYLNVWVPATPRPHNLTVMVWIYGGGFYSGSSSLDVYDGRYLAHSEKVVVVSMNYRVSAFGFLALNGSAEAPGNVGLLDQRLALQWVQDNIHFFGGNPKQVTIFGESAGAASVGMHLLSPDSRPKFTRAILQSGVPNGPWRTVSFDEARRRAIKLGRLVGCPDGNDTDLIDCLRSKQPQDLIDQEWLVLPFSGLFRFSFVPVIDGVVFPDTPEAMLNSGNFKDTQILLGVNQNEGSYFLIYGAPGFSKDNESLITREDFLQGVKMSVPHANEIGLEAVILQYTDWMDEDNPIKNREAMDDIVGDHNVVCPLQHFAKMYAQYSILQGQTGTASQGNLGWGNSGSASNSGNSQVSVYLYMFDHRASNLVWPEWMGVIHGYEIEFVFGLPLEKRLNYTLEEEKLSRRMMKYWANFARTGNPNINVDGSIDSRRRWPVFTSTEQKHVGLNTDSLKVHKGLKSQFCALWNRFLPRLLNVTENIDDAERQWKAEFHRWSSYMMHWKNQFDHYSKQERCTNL

| SMILES | IC50 ([1]; Leishmania infantum) [µM] | IC50 [1] [µM] | IC50 [2] [µM] | IC50 [3] [µM] | selectivity ratio at 6 days [4, 8] | selectivity ratio at 6 days [4, 9] | selectivity ratio at 6 days [4, 10] | Pe [5] | Pe (prediction) of BBB permeation [5] | IC50 [6, 11] [µM] | IC50 [6, 12] [µM] | IC50 [7, 13] [µM] | IC90 ([7]; Trypanosoma brucei) [µM] | IC50 [7, 14] [µM] |
| --- | --- | --- | --- | --- | --- | --- | --- | --- | --- | --- | --- | --- | --- | --- |
| NCc1ccc(-c2nc3ccc(Cl)cc3c3c2CCCN3Cc2ccccc2)cc1 [Compound 3, 4-{1-Benzyl-9-chloro-1,2,3,4-tetrahydrobenzo[h][1,6]naphthyridin-5-yl}benzylamine] | ~30 | 31.1 ± 2.9 | 6.78 ± 1.26 | 3.67 ± 0.55 | 0.2 | 6.8 | 0.7 | 7.4 ± 0.2 10^−6 cm s^−1 | CNS+ (compounds of high BBB permeation (CNS+): Pe (10^−6 cm s^−1) > 5.25) | 9.47 | 9.5 ± 2.5 | 1 ± 0.03 | 1.19 ± 0.02 | – |
| N#Cc1ccc(-c2nc3ccc(Cl)cc3c3c2CCN3)cc1 [Compound 26, 4-{8-Chloro-2,3-dihydro-1H-pyrrolo[3,2-c]quinolin-4-yl}benzonitrile] | > 200 | – | – | 1.19 ± 0.15 | – | – | – | 6.8 ± 0.3 10^−6 cm s^−1 | CNS+ (compounds of high BBB permeation (CNS+): Pe (10^−6 cm s^−1) > 5.25) | > 150 | – | > 30 | > 30 | – |
| N#Cc1ccc(-c2nc3ccc(Cl)cc3c3c2CCCN3)cc1 [Compound 27, 4-{9-Chloro-1,2,3,4-tetrahydrobenzo[h][1,6]naphthyridin-5-yl}benzonitrile] | 15.3 ± 3.6 | – | 38.8 ± 1.7 | 1.13 ± 0.17 | 2.5 | 6.4 | 0.3 | 14.3 ± 0.1 10^−6 cm s^−1 | CNS+ (compounds of high BBB permeation (CNS+): Pe (10^−6 cm s^−1) > 5.25) | 147 ± 19 | – | 6.07 ± 0.54 | 10.5 ± 0.2 | – |
| N#Cc1ccc(-c2nc3ccc(Cl)cc3c3c2CCCCN3)cc1 [Compound 28, 4-{10-Chloro-2,3,4,5-tetrahydro-1H-azepino[3,2-c]quinolin-6-yl}benzonitrile] | 13.7 ± 2.2 | – | – | 2.2 ± 0.3 | – | – | – | 20.0 ± 1.1 10^−6 cm s^−1 | CNS+ (compounds of high BBB permeation (CNS+): Pe (10^−6 cm s^−1) > 5.25) | 64.6 ± 12.5 | – | 17.3 ± 2.1 | 28.6 ± 6.7 | – |
| N#Cc1ccc(-c2nc3cc(Cl)ccc3c3c2CCCN3)cc1 [Compound 29, 4-{8-Chloro-1,2,3,4-tetrahydrobenzo[h][1,6]naphthyridin-5-yl}benzonitrile] | 19 ± 3 | – | – | 3.27 ± 0.43 | – | – | – | 16.2 ± 0.1 10^−6 cm s^−1 | CNS+ (compounds of high BBB permeation (CNS+): Pe (10^−6 cm s^−1) > 5.25) | 39.4 ± 0.2 | – | > 30 | > 30 | – |
| NCc1ccc(-c2nc3ccc(Cl)cc3c3c2CCN3)cc1 [Compound 30, 4-{8-Chloro-2,3-dihydro-1H-pyrrolo[3,2-c]quinolin-4-yl}benzylamine] | 6.5 ± 1.4 | – | 2.54 ± 0.92 | 0.87 ± 0.08 | 0.4 | 2.8 | 0.1 | 7.4 ± 2.6 10^−6 cm s^−1 | CNS+ (compounds of high BBB permeation (CNS+): Pe (10^−6 cm s^−1) > 5.25) | ~30 | 37.3 ± 11 | 0.92 ± 0.05 | 1.57 ± 0.03 | – |
| NCc1ccc(-c2nc3ccc(Cl)cc3c3c2CCCN3)cc1 [Compound 31, 4-{9-Chloro-1,2,3,4-tetrahydrobenzo[h][1,6]naphthyridin-5-yl}benzylamine] | 11.6 ± 2.5 | – | 8.92 ± 0.25 | 0.97 ± 0.02 | 0.8 | 3.7 | 0.2 | 4.6 ± 0.2 10^−6 cm s^−1 | – | 50.5 ± 14.3 | – | 2.44 ± 0.13 | 3.48 ± 0.05 | – |
| N#Cc1ccc(-c2nc3cc(Cl)ccc3cc2CCCN)cc1 [Compound 35, 4-[3-(3-Aminopropyl)-7-chloroquinolin-2-yl]benzonitrile] | ~15 | 16.2 ± 4 | 20.4 ± 0.4 | – | 1.3 | 4.9 | 0.3 | 18.3 ± 0.6 10^−6 cm s^−1 | CNS+ (compounds of high BBB permeation (CNS+): Pe (10^−6 cm s^−1) > 5.25) | 78.8 ± 1.7 | – | ~5 | 5.61 ± 0.05 | 4.16 ± 0.07 |
| N#Cc1ccc([C@H]2Nc3ccc(Cl)cc3[C@@H]3OCCC[C@H]23)cc1 [Compound 37] | > 200 | – | – | – | – | – | – | 7.0 ± 0.7 10^−6 cm s^−1 | CNS+ (compounds of high BBB permeation (CNS+): Pe (10^−6 cm s^−1) > 5.25) | 676 ± 37 | – | > 30 | > 30 | – |
| Clc1ccc2nc(-c3ccco3)c3c(c2c1)OCCC3 [Compound 42, 9-Chloro-5-(2-furyl)-3,4-dihydro-2H-pyrano[3,2-c]quinoline] | 38.4 ± 21.6 | – | – | 16.3 ± 1.5 | – | – | – | 3.5 ± 0.4 10^−6 cm s^−1 | – | 76.1 ± 7.8 | – | 21.7 ± 1.2 | 29.3 ± 0.5 | – |
| Clc1ccc2nc(-c3cccs3)c3c(c2c1)OCCC3 [Compound 43, 9-Chloro-3,4-dihydro-5-(2-thienyl)-2H-pyrano[3,2-c]quinoline] | 51.4 ± 2.3 | – | – | 9.39 ± 0.82 | – | – | – | 14.4 ± 1.6 10^−6 cm s^−1 | CNS+ (compounds of high BBB permeation (CNS+): Pe (10^−6 cm s^−1) > 5.25) | > 250 | – | 18 ± 0.4 | 27.6 ± 1.1 | – |
| OCCCc1cc2cc(Cl)ccc2nc1-c1ccco1 [Compound 44, 3-[6-chloro-2-(2-furyl)quinolin-3-yl]-1-propanol] | 19.3 ± 11.3 | – | – | – | – | – | – | 10.3 ± 1.5 10^−6 cm s^−1 | CNS+ (compounds of high BBB permeation (CNS+): Pe (10^−6 cm s^−1) > 5.25) | 29.3 ± 12 | – | > 25 | 70.6 ± 1.5 | 35.7 ± 1.8 |
| OCCCc1cc2cc(Cl)ccc2nc1-c1cccs1 [Compound 45, 3-[6-chloro-2-(2-thienyl)quinolin-3-yl]-1-propanol] | 37.3 ± 2.3 | – | – | – | – | – | – | 28.4 ± 1.2 10^−6 cm s^−1 | CNS+ (compounds of high BBB permeation (CNS+): Pe (10^−6 cm s^−1) > 5.25) | 51.7 ± 19.4 | – | > 25 | 42.9 ± 1.5 | 28 ± 0.7 |
| N#CCCc1cc2cc(Cl)ccc2nc1-c1cccs1 [Compound 47, 3-[6-Chloro-2-(2-thienyl)quinolin-3-yl]propanenitrile] | 23.3 ± 5.9 | – | – | – | – | – | – | 17.9 ± 1.1 10^−6 cm s^−1 | CNS+ (compounds of high BBB permeation (CNS+): Pe (10^−6 cm s^−1) > 5.25) | 51.7 ± 5.1 | – | > 25 | > 30 | > 30 |
| CCN(CC)CCCc1cc2cc(Cl)ccc2nc1-c1cccs1 [Compound 50, N-{3-[6-Chloro-2-(2-thienyl)quinolin-3-yl]propyl}-N,N-diethylamine] | ~15 | 13.6 ± 1.5 | 14.7 ± 2.3 | – | 1.1 | 2.3 | 0.2 | 20.9 ± 0.5 10^−6 cm s^−1 | CNS+ (compounds of high BBB permeation (CNS+): Pe (10^−6 cm s^−1) > 5.25) | 77.6 ± 11.2 | – | ~5 | 12.6 ± 0.9 | 6.33 ± 0.94 |
